Data set [1] has as its system fibroblasts. The settings on record: cited from earlier work.
The test system of data set [2] is human keratinocytes. Particulars: cited from earlier work.
Data set [3] concerns skin. The settings on record: rats; cited from earlier work.
The nature of data set [4]: Solubility of DHEA in various oily solvents (excess DHEA, supernatant analysed by HPLC). It counts as physicochemical. The settings on record: for RT solubility: room temperature (25° C.), after 24 hours; for solubility of DHEA: comparative. Here is the method:
The solubility measurement was performed in the following manner. DHEA was dispersed, in excess, in the solvent under consideration, and preheated to 60° C. This temperature was maintained for one hour with stirring using a magnetic bar. The suspension was then cooled to room temperature (RT, 25° C.). After 24 hours, the suspension was centrifuged to remove the undissolved DHEA crystals. The supernatant was taken up and the absence of DHEA crystals was checked by cross-polarized optical microscopy. This supernatant was then analysed by HPLC. It is considered that the amount of DHEA detected corresponds to its maximum solubility in the solvent under consideration.

As to `C[C@]12CC[C@H](O)CC1=C[C@@H](O)[C@@H]1[C@@H]2CC[C@]2(C)C(=O)CC[C@@H]12` [7α-hydroxy DHEA], the proliferation of fibroblasts result in data set [1] was “increase”. Besides, in data set [2], the “viability of human keratinocytes” value is “increase”. Moreover, in data set [3], the “elastin and collagen content of the skin” value is “increases”; the “thickness of the dermis” value is reported as “increases”.
Turning to `C[C@]12CC[C@H](O)CC1=CC[C@@H]1[C@@H]2CC[C@]2(C)C(=O)CC[C@@H]12` [DHEA, dehydroepiandrosterone], the RT solubility in data set [4] (DHEA in Capric/caprylic triglycerides) is recorded as 1.77%; in data set [4] (DHEA in Isopropyl palmitate), 1.37%; in data set [4] (DHEA in Isostearyl neopentanoate), 1.30%; in data set [4] (DHEA in Jojoba oil), 1.10%; in data set [4] (DHEA in Octyl palmitate) it was 1%; in data set [4] (DHEA in PPG-15 stearyl ether), 2.68%. Besides, the results for the RT solubility in data set [4] (DHEA in Sesame oil) and in data set [4] (DHEA in α-Tocopherol) were 1.40% and 1.65%, respectively. Besides, the “solubility of DHEA” value turned out to be 0.83% in data set [4] (in cetearyl isononanoate); 0.04% in data set [4] (in cyclopentasiloxane); 0% in data set [4] (in liquid paraffin); 0.17% in data set [4] (in polydimethylsiloxane (200-350 cs)); 0.10% in data set [4] (in squalane).

Source of the values: US20040197416A1, “Nanocapsules containing a steroid for cosmetic compositions” (priority 2001, published 2004).
